According to patent US10030027B2, “Soluble guanylate cyclase stimulators” (MERCK SHARP & DOHME CORP., priority 2015, dated 2018):

Experiments:
sGC α1/β1 heterodimer = sGC α1/β1 heterodimer (Homo sapiens (Human), UniProt Q02108+Q02153); assay: Cell-based sGC functional assay (cyclic GMP assay for sGC activator: CASA assay); conditions: CHO-K1/sGC cells; for Emax: CHO-K1, activity expressed as percentage of compound A (standard), read-out: % Activation; for EC50: inflection point, 4P fit, read-out: IP
Method in brief: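 CHO-K1 cells stably expressing human sGC α1/β1 were pre-incubated 30 min at 25° C with or without 1 μM DETA-NO, then exposed to compound for 1 hr at 37° C with 0.5 mM IBMX and 2.5% DMSO final. Intracellular cGMP was measured by HTRF, expressed as % of reference sGC-HDA maximum; inflection point and maximum fold induction came from 4-parameter fits.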

[1] = biological target: human recombinant sGC enzyme (Homo sapiens (Human), UniProt Q02108+Q02153); assay: Size Exclusion Chromatography (SEC) competition binding assay using [3H] Ex-77B as the radioligand; conditions: [3H] Ex-77B radioligand, 24 hours at 37° C.
Method in brief: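 Recombinant human sGC binding measured by competition against tritiated Ex-77B radioligand, with non-specific binding defined by 1 μM unlabeled Ex-77B.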

Compound | Emax (sGC α1/β1 heterodimer) [%] | EC50 (sGC α1/β1 heterodimer) [nM] | Ki [1] [nM]
CC(C)(CCc1csc(C2(C)C(=O)Nc3nc(-c4nn(Cc5ccccc5F)c5ccccc45)nc(N)c32)n1)C(=O)O (stereo not drawn) [Example 204A, 4-(2-{4-amino-2-[1-(2-fluorobenzyl)-1H-indazol-3-yl]-5-methyl-6-oxo-6,7-dihydro-5H-pyrrolo[2,3-d]pyrimidin-5-yl}-1,3-thiazol-4-yl)-2,2-dimethyl-butanoic acid] | 97.8 | 47 | 0.269
CC(C)(CCc1coc(C2(C)C(=O)Nc3nc(-c4nn(Cc5ccccc5F)c5ncccc45)nc(N)c32)n1)C(=O)O (stereo not drawn) [Example 206B, 4-(2-{4-amino-2-[1-(2-fluorobenzyl)-1H-pyrazolo[3,4-b]pyridin-3-yl]-5-methyl-6-oxo-6,7-dihydro-5H-pyrrolo[2,3-d]pyrimidin-5-yl}-1,3-oxazol-4-yl)-2,2-dimethyl-butanoic acid] | 113 | 549 | 0.798
CC(C)(CCc1coc(C2(C)C(=O)Nc3nc(-c4nn(Cc5ncccc5F)c5cc(Cl)ccc45)nc(N)c32)n1)C(=O)O (stereo not drawn) [Example 207B, 4-{2-[4-amino-2-{6-chloro-1-[(3-fluoropyridin-2-yl)methyl]-1H-indazol-3-yl}-5-methyl-6-oxo-6,7-dihydro-5H-pyrrolo[2,3-d]pyrimidin-5-yl]-1,3-oxazol-4-yl}-2,2-dimethyl-butanoic acid] | 100 | 1760 | 0.095
CC1(c2ccc(C(=O)O)cc2)C(=O)Nc2nc(-c3nn(Cc4ccccc4F)c4cc(Cl)ccc34)nc(N)c21 (stereo not drawn) [Example 209B, 4-{4-amino-2-[6-chloro-1-(2-fluorobenzyl)-1H-indazol-3-yl]-5-methyl-6-oxo-6,7-dihydro-5H-pyrrolo[2,3-d]pyrimidin-5-yl} benzoic acid] | 94.4 | 2480 | 1.64
CC(C)(C)CCn1nc(-c2nc(N)c3c(n2)NC(=O)[C@@]3(C)c2ccc(CCC(=O)O)cc2)c2cccnc21 [Example 210B, (S)-3-(4-{4-amino-2-[1-(3,3-dimethylbutyl)-1H-pyrazolo[3,4-b]pyridin-3-yl]-5-methyl-6-oxo-6,7-dihydro-5H-pyrrolo[2,3-d]pyrimidin-5-yl}phenyl)propanoic acid] | 103 | 2020 | 0.341
CC(C)(Cc1csc([C@]2(C)C(=O)Nc3nc(-c4nn(Cc5c(F)ccc(F)c5F)c5ccccc45)nc(N)c32)n1)C(=O)O [Example 224A, (S)-3-(2-{4-amino-5-methyl-6-oxo-2-[1-(2,3,6-trifluorobenzyl)-1H-indazol-3-yl]-6,7-dihydro-5H-pyrrolo[2,3-d]pyrimidin-5-yl}-1,3-thiazol-4-yl)-2,2-dimethyl-propanoic acid] | 111 | 14 | 0.067
Cc1cccc(Cn2nc(-c3nc(N)c4c(n3)NC(=O)[C@@]4(C)c3ccc(CCC(=O)O)cc3)c3ccccc32)c1 [Example 225B, (S)-3-(4-{4-amino-5-methyl-2-[1-(3-methylbenzyl)-1H-indazol-3-yl]-6-oxo-6,7-dihydro-5H-pyrrolo[2,3-d]pyrimidin-5-yl}phenyl)propanoic acid] | 140 | 460 | 0.342

Next, values leading:

Emax (sGC α1/β1 heterodimer) [%] | EC50 (sGC α1/β1 heterodimer) [nM] | Ki [1] [nM] | Compound
101 | 453 | 0.253 | CC(C)(C)CCn1nc(-c2nc(N)c3c(n2)NC(=O)C3(C)c2nc(CC(C)(C)C(=O)O)co2)c2ccc(Cl)cc21 (stereo not drawn) [Example 208A, 3-(2-{4-amino-2-[6-chloro-1-(3,3-dimethylbutyl)-1H-indazol-3-yl]-5-methyl-6-oxo-6,7-dihydro-5H-pyrrolo[2,3-d]pyrimidin-5-yl}-1,3-oxazol-4-yl)-2,2-dimethyl-propanoic acid]
96.2 | 1180 | 0.258 | Cc1cccc(Cn2nc(-c3nc(N)c4c(n3)NC(=O)C4(C)c3cnn(CC(C)(C)C(=O)O)c3)c3ccc(F)cc32)c1F (stereo not drawn) [Example 211A, 3-(4-{4-amino-2-[6-fluoro-1-(2-fluoro-3-methyl-benzyl)-1H-indazol-3-yl]-5-methyl-6-oxo-6,7-dihydro-5H-pyrrolo[2,3-d]pyrimidin-5-yl}-1H-pyrazol-1-yl)-2,2-dimethyl-propanoic acid]
94.9 | 839 | 0.123 | Cc1ccc(F)c(Cn2nc(-c3nc(N)c4c(n3)NC(=O)C4(C)c3nc(CC(C)(C)C(=O)O)co3)c3ccc(Cl)cc32)c1 (stereo not drawn) [Example 213A, 3-(2-{4-amino-2-[6-chloro-1-(2-fluoro-5-methyl-benzyl)-1H-indazol-3-yl]-5-methyl-6-oxo-6,7-dihydro-5H-pyrrolo[2,3-d]pyrimidin-5-yl} 1,3-oxazol-4-yl)-2,2-dimethyl-propanoic acid]
119 | 3700 | 0.189 | Cc1ccnc(Cn2nc(-c3nc(N)c4c(n3)NC(=O)C4(C)c3nc(CC(C)(C)C(=O)O)co3)c3ccc(Cl)cc32)c1F (stereo not drawn) [Example 215A, 3-(2-{4-amino-2-[6-chloro-1-((3-fluoro-4-methyl-pyridin-2-yl)methyl)-1H-indazol-3-yl]-5-methyl-6-oxo-6,7-dihydro-5H-pyrrolo[2,3-d]pyrimidin-5-yl} 1,3-oxazol-4-yl)-2,2-dimethyl-propanoic acid]
132 | 678 | 0.11 | Cc1ccnc(Cn2nc(-c3nc(N)c4c(n3)NC(=O)[C@@]4(C)c3nc(CC(C)(C)C(=O)O)cs3)c3ccc(Cl)cc32)c1F [Example 216A, (S)-3-(2-{4-amino-2-[6-chloro-1-((3-fluoro-4-methyl-pyridin-2-yl)methyl)-1H-indazol-3-yl]-5-methyl-6-oxo-6,7-dihydro-5H-pyrrolo[2,3-d]pyrimidin-5-yl} 1,3-thiazol-4-yl)-2,2-dimethyl-propanoic acid]
124 | 1420 | 0.067 | CC1(c2ccc(/C=C/C(=O)O)cc2)C(=O)Nc2nc(-c3nn(Cc4ccccc4F)c4ncccc34)nc(N)c21 (stereo not drawn) [Example 217A, (2E)-3-(4-{4-amino-2-[1-(2-fluorobenzyl)-1H-pyrazolo[3,4-b]pyridin-3-yl]-5-methyl-6-oxo-6,7-dihydro-5H-pyrrolo[2,3-d]pyrimidin-5-yl}phenyl)prop-2-enoic acid]
103 | 301 | 0.057 | CC1(c2ccc(/C=C/C(=O)O)cc2)C(=O)Nc2nc(-c3nn(Cc4ccccc4F)c4cc(Cl)ccc34)nc(N)c21 (stereo not drawn) [Example 218A, (2E)-3-(4-{4-amino-2-[6-chloro-1-(2-fluorobenzyl)-1H-indazol-3-yl]-5-methyl-6-oxo-6,7-dihydro-5H-pyrrolo[2,3-d]pyrimidin-5-yl}phenyl)prop-2-enoic acid]
119 | 210 | 0.05 | CC(C)(Cc1coc(C2(C)C(=O)Nc3nc(-c4nn(Cc5cccc(F)c5)c5ccccc45)nc(N)c32)n1)C(=O)O (stereo not drawn) [Example 223A, 3-(2-{4-amino-2-[1-(3-fluoro-benzyl)-1H-indazol-3-yl]-5-methyl-6-oxo-6,7-dihydro-5H-pyrrolo[2,3-d]pyrimidin-5-yl}-1,3-oxazol-4-yl)-2,2-dimethyl-propanoic acid]
112 | 355 | 0.176 | Cc1cccc(Cn2nc(-c3nc(N)c4c(n3)NC(=O)C4(C)c3nc(CC(C)(C)C(=O)O)co3)c3ccccc32)c1 (stereo not drawn) [Example 226A, 3-(2-{4-amino-5-methyl-2-[1-(3-methylbenzyl)-1H-indazol-3-yl]-6-oxo-6,7-dihydro-5H-pyrrolo[2,3-d]pyrimidin-5-yl}-1,3-oxazol-4-yl)-2,2-dimethyl-propanoic acid]
